Measured values: patent publication US8901315B2, “Thienopyrazole derivative having PDE7 inhibitory activity” (Daiichi Sankyo Company, Limited, priority 2004, dated 2014)
pIC50: −log10 of the molar value. Structures can show the parent of a compound that is named as a salt. Where two headings read alike, the source gives them in different places.

Columns and labels:
[1] = target: PDE 4 (phosphodiesterase IV); assay: PDE 4 inhibiting effect (3H-cAMP hydrolysis, PDE 4 active fraction from Balb/c mouse liver); assay type: biochemical; settings: PDE 4 fraction from Balb/c mice liver, 0.064 μM cAMP, 2 hours at 25° C., read-out: PDE4 IC50
Protocol: Methods for Evaluating the PDE 4 Inhibiting Effect
The PDE 4 (phosphodiesterase IV) inhibiting effect of the compounds of the present invention was performed by the following method, which was modified assay method described in Biochemical. […] That is, the livers obtained from three Balb/c mice (male, 12 weeks: obtainable from CLEA Japan, Inc.) were suspended with 30 mL of buffer solution B [20 mM of bis-tris, 5 mM of 2-mercaptoethanol, 2 mM of benzamidine, 2 mM of EDTA, 0.1 mM of 4-(2-aminoethyl)benzenesulfonyl hydrochloride, 50 mM of sodium acetate; pH 6.5], then homogenized by Polytron® homogenizer. The homogenate were centrifuged under 25,000×G for 10 minutes at 4° C. The supernatant was separated and thus obtained supernatant was further centrifuged under 100,000×G for 60 minutes at 4° C., and then filtrated with 0.2 μm filter to obtain the soluble fraction. • (2) The obtained soluble fraction was filled in equilibrium DEAE sepharose column (1×10 cm) with buffer solution B, and phosphodiesterase fractions were eluted by 120 mL of buffer solution B with linear gradient from 0.05 to 1M sodium acetate concentration. 5 mL each of 24 eluents were collected, and each eluents were examined for cyclic AMP metabolic activities of phosphodiesterase. […] After the reaction, suspension of Sephadex®-QAE in 10 mM of HEPES-Na (pH 7.0) was added to the reaction mixture, and the mixture was left at rest for 5 minutes.

[2] = target: PDE 7 (phosphodiesterase VII) (Homo sapiens (Human), UniProt Q13946); assay: PDE 7 inhibiting effect (3H-cAMP hydrolysis, PDE 7 active fraction from MOLT-4 cells); assay type: biochemical; settings: read-out: PDE7 IC50
Chain of PDE 7 (phosphodiesterase VII) (Q13946 whole entry): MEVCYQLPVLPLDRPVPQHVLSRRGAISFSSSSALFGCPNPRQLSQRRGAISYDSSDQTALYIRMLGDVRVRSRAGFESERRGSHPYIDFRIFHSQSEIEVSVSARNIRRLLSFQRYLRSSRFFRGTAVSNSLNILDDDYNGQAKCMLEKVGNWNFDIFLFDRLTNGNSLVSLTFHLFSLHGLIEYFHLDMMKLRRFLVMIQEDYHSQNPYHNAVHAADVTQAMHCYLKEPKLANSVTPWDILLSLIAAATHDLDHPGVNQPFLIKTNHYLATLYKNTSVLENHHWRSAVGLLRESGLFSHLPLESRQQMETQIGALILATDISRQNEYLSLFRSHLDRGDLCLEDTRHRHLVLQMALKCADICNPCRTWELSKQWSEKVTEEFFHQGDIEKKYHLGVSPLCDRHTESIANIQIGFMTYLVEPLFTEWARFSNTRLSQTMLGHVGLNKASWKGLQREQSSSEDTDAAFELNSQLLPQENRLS
Protocol: Methods for Evaluating the PDE 7 Inhibiting Effect
The PDE 7 (phosphodiesterase VII) inhibiting effect of the compounds of the present invention was performed by the following method, which was modified assay method described in Biochemical. Pharmacol. 48(6), 1219-1223 (1994). • (1) The active fraction of PDE 7 (phosphodiesterase VII) was obtained. That is, MOLT-4 (obtainable from ATCC as ATCC No. CRL-1582), which was cell line of human acute lymphoblastic lymphoma T cells, was incubated in RPMI1640 culture medium containing 10% fetal bovine serum to obtain 5×10^8 MOLT-4 cells. The cells were collected by centrifugation and suspended with 10 mL of buffer solution A [25 mM of tris-HCl, 5 mM of 2-mercaptoethanol, 2 mM of benzamidine, 2 mM of EDTA, 0.1 mM of 4-(2-aminoethyl)benzenesulfonyl hydrochloride; pH 7.5], then homogenized by Polytron® homogenizer. The homogenate were centrifuged under 25,000×G for 10 minutes at 4° C. The supernatant was separated and thus obtained supernatant was further centrifuged under 100,000×G for 60 minutes at 4° C., and then filtrated with 0.2 μm filter to obtain the soluble fraction. • (2) The obtained soluble fraction was filled in equilibrium HiTrap Q column (5 mL×2) with buffer solution A, and phosphodiesterase fractions were eluted by 300 mL of buffer solution A with linear gradient from 0 to 0.8 M NaCl concentration. 5 mL each of 60 eluents were collected, and each eluents were examined for cyclic AMP metabolic activities of phosphodiesterase. […] After the reaction, suspension of Sephadex®-QAE in 10 mM of HEPES-Na (pH 7.0) was added to the reaction mixture, and the mixture was left at rest for 5 minutes.

[3] = PDE 7 fraction from MOLT-4 cells, 0.064 μM cAMP, 10 μM rolipram, 2 hours at 25° C.

SMILES | pIC50 [1] | pIC50 [2, 3] | pIC50 ([1]; methanesulfonate) | pIC50 ([2]; PDE 7 fraction from MOLT-4 cells, 0.064 μM cAMP, 10 μM rolipram, 2 hours at 25° C., methanesulfonate) | pIC50 [2]
Cc1nn(C2CCCCC2)c2sc(C(=O)Nc3ccc(N4CCN(C)CC4)cc3)cc12 [Example 106, 1-Cyclohexyl-3-methyl-N-[4-(4-methyl-1-piperazinyl)phenyl]-1H-thieno[2,3-c]pyrazole-5-carboxamide] | 5.92 | 8.05 | – | – | –
Cc1nn(C2CCCCC2)c2sc(C(=O)Nc3ccc(N4CCN(C)CC4)cc3)cc12 [Example 107, 1-Cyclohexyl-3-methyl-N-[4-(4-methyl-1-piperazinyl)phenyl]-1H-thieno[2,3-c]pyrazole-5-carboxamide methanesulfonate] | – | – | 5.70 | 7.77 | –
Cc1nn(C2CCCCC2)c2sc(C(=O)Nc3ccc(N4CCN(C)CC4)nc3)cc12 [Example 109, 1-Cyclohexyl-3-methyl-N-[6-(4-methyl-1-piperazinyl)-3-pyridinyl]-1H-thieno[2,3-c]pyrazole-5-carboxamide di-HCl salt] | 6.00 | – | – | – | 7.82
Cc1nn(C2CCCCC2)c2sc(C(=O)Nc3cccc(S(=O)(=O)N4CCN(C)CC4)c3)cc12 [Example 110, 1-Cyclohexyl-3-methyl-N-{3-[(4-methyl-piperazinyl)sulfonyl]-phenyl}-1H-thieno[2,3-c]pyrazole-5-carboxamide HCl salt] | 5.26 | 7.12 | – | – | –
CNS(=O)(=O)c1cccc(NC(=O)c2cc3c(C)nn(C4CCCCC4)c3s2)c1 [Example 111, 1-Cyclohexyl-3-methyl-N-{3-[(methylamino)sulfonyl]phenyl}-1H-thieno[2,3-c]pyrazole-5-carboxamide] | < 4.52 | 8.00 | – | – | –
Cc1nn(C2CCCCCC2)c2sc(C(=O)Nc3ccc(N4CCN(C)CC4)cc3)cc12 [Example 112] | 5.92 | 8.10 | – | – | –
COc1cc(NC(=O)c2cc3c(C)nn(C4CCCCCC4)c3s2)ccc1NC(C)=O [Example 115, N-[4-(Acetylamino)-3-methoxyphenyl]-1-cycloheptyl-3-methyl-1H-thieno[2,3-c]pyrazole-5-carboxamide] | 5.82 | 7.40 | – | – | –
Cc1nn(C2CCCCC2)c2sc(C(=O)Nc3ccc(N(C)CCO)c(F)c3)cc12 [Example 125, 1-Cyclohexyl-N-{3-fluoro-4-[(2-hydroxyethyl)(methyl)amino]phenyl}-3-methyl-1H-thieno[2,3-c]pyrazole-5-carboxamide HCl salt] | 5.40 | 7.12 | – | – | –
Cc1nn(C2CCCCC2)c2sc(C(=O)NC3CCN(C4CCOCC4)CC3)cc12 [Example 135, 1-Cyclohexyl-3-methyl-N-(1-tetrahydro-2H-pyran-4-yl-4-piperidinyl)-1H-thieno[2,3-c]pyrazole-5-carboxamide] | 5.13 | 7.28 | – | – | –
Cc1nn(C2CCCCC2)c2sc(C(=O)Nc3ccc(C4CCNCC4)cc3)cc12 [Example 141, 1-Cyclohexyl-3-methyl-N-[4-(4-piperidinyl)phenyl]-1H-thieno[2,3-c]pyrazole-5-carboxamide HCl salt] | 5.80 | 7.66 | – | – | –
Cc1nn(C2CCCCC2)c2sc(C(=O)Nc3ccc(C4CCN(C)CC4)cc3)cc12 [Example 142, 1-Cyclohexyl-3-methyl-N-[4(1-methyl-4-piperidinyl)phenyl]-1H-thieno[2,3-c]pyrazole-5-carboxamide] | 5.70 | 7.85 | – | – | –
COc1cc(NC(=O)c2cc3c(C)nn(C4CCCCC4)c3s2)ccc1C(=O)NCCO [Example 150, 1-Cyclohexyl-N-(4-{[(2-hydroxyethyl)amino]carbonyl}-3-methoxyphenyl)-3-methyl-1H-thieno[2,3-c]pyrazole-5-carboxamide] | 6.15 | 7.35 | – | – | –
CNC(=O)c1ccc(NC(=O)c2cc3c(C)nn(C4CCCCC4)c3s2)cc1OC [Example 152, 1-Cyclohexyl-N-{3-methoxy-4-[(methylamino)carbonyl]phenyl}-3-methyl-1H-thieno[2,3-c]pyrazole-5-carboxamide] | 5.52 | 7.07 | – | – | –
Cc1nn(C2CCCCC2)c2sc(C(=O)Nc3ccc(N4CCN(C)CC4)c(F)c3)cc12 [Example 155, 1-Cyclohexyl-N-[3-fluoro-4-(4-methyl-1-piperazinyl)phenyl]-3-methyl-1H-thieno[2,3-c]pyrazole-5-carboxamide methanesulfonic acid salt] | 5.82 | 8.00 | – | – | –
Cc1nn(C2CCCCC2)c2sc(C(=O)Nc3ccc(N4CCC(O)CC4)c(Cl)c3)cc12 [Example 162, N-[3-Chloro-4-(4-hydroxy-piperidinyl)phenyl]-1-cyclohexyl-3-methyl-1H-thieno[2,3-c]pyrazole-5-carboxamide] | 5.70 | 7.15 | – | – | –
CNC1CCN(c2ccc(NC(=O)c3cc4c(C)nn(C5CCCCC5)c4s3)cc2F)CC1 [Example 163, 1-Cyclohexyl-N-{3-fluoro-4-[4-(methylamino)-1-piperidinyl]phenyl}-3-methyl-1H-thieno[2,3-c]pyrazole-5-carboxamide] | 6.05 | 7.85 | – | – | –
CNC1CCN(c2ccc(NC(=O)c3cc4c(C)nn(C5CCCCC5)c4s3)cc2Cl)CC1 [Example 165, N-{3-Chloro-4-[4-(methylamino)-1-piperidinyl]phenyl}-1-cyclohexyl-3-methyl-1H-thieno[2,3-c]pyrazole-5-carboxamide] | 6.19 | 7.70 | – | – | –
Cc1nn(C2CCCCC2)c2sc(C(=O)N[C@H]3CC[C@H](N4CCN(C)CC4)CC3)cc12 [Example 166, 1-Cyclohexyl-3-methyl-N-[trans-4-(4-methyl-1-piperazinyl)-cyclohexyl]-1H-thieno[2,3-c]pyrazole-5-carboxamide] | 5.89 | 7.80 | – | – | –
Cc1nn(C2CCCCC2)c2sc(C(=O)N[C@H]3CC[C@H](N4CCCN(C)CC4)CC3)cc12 [Example 167, 1-Cyclohexyl-3-methyl-N-[trans-4-(4-methyl-1,4-diazepam-1-yl)-cyclohexyl]-1H-thieno[2,3-c]pyrazole-5-carboxamide] | 6.00 | 7.82 | – | – | –
COC1CCN([C@H]2CC[C@H](NC(=O)c3cc4c(C)nn(C5CCCCC5)c4s3)CC2)CC1 [Example 168, 1-Cyclohexyl-N-[trans-4-(4-methoxyl-1-piperidinyl)cyclohexyl]-3-methyl-1H-thieno[2,3-c]pyrazole-5-carboxamide] | 5.82 | 7.66 | – | – | –
Cc1nn(C2CCCCC2)c2sc(C(=O)N[C@H]3CC[C@H](N4CCCNCC4)CC3)cc12 [Example 170, 1-Cyclohexyl-N-[trans-4-(1,4-diazepam-1-yl)cyclohexyl]-3-methyl-1H-thieno[2,3-c]pyrazole-5-carboxamide] | 5.89 | 7.66 | – | – | –
CC(=O)N1CCCN([C@H]2CC[C@H](NC(=O)c3cc4c(C)nn(C5CCCCC5)c4s3)CC2)CC1 [Example 171, N-[trans-4-(4-Acetyl-1,4-diazepam-1-yl)cyclohexyl]-1-cyclohexyl-3-methyl-1H-thieno[2,3-c]pyrazole-5-carboxamide] | 5.77 | 7.43 | – | – | –
COCCN(C)[C@H]1CC[C@H](NC(=O)c2cc3c(C)nn(C4CCCCC4)c3s2)CC1 [Example 172, 1-cyclohexyl-N-{trans-4-[(2-methoxyethyl)(methyl)amino]-cyclohexyl}-3-methyl-1H-thieno[2,3-c]pyrazole-5-carboxamide] | 5.03 | 7.32 | – | – | –
Cc1nn(C2CCCCC2)c2sc(C(=O)N[C@H]3CC[C@H](N4CCC(O)CC4)CC3)cc12 [Example 176, 1-Cyclohexyl-N-[trans-4-(4-hydroxy-1-piperidinyl)cyclohexyl]-3-methyl-1H-thieno[2,3-c]pyrazole-5-carboxamide] | 5.77 | 7.70 | – | – | –
